Data as given in patent publication US5962314A, “Calcium receptor-active molecules” (priority 1997, dated 1999).
“Also recorded” adds a separate entry of the source. Where two headings read alike, the source gives them in different places.

Legend:
bovine parathyroid cells = test: PTH secretion from bovine parathyroid cells; format: cell-based; settings: bovine parathyroid cells
calcium receptor = molecular target: T1, calcium receptor (Homo sapiens, UniProt P41180); test: Xenopus oocytes injected with human parathyroid cell mRNA; format: cell-based; settings: for effect on Cl- current: oocytes injected with human parathyroid mRNA; for effect in water-injected oocytes: neomycin B 10 mM
T1 sequence (P41180 20-1078): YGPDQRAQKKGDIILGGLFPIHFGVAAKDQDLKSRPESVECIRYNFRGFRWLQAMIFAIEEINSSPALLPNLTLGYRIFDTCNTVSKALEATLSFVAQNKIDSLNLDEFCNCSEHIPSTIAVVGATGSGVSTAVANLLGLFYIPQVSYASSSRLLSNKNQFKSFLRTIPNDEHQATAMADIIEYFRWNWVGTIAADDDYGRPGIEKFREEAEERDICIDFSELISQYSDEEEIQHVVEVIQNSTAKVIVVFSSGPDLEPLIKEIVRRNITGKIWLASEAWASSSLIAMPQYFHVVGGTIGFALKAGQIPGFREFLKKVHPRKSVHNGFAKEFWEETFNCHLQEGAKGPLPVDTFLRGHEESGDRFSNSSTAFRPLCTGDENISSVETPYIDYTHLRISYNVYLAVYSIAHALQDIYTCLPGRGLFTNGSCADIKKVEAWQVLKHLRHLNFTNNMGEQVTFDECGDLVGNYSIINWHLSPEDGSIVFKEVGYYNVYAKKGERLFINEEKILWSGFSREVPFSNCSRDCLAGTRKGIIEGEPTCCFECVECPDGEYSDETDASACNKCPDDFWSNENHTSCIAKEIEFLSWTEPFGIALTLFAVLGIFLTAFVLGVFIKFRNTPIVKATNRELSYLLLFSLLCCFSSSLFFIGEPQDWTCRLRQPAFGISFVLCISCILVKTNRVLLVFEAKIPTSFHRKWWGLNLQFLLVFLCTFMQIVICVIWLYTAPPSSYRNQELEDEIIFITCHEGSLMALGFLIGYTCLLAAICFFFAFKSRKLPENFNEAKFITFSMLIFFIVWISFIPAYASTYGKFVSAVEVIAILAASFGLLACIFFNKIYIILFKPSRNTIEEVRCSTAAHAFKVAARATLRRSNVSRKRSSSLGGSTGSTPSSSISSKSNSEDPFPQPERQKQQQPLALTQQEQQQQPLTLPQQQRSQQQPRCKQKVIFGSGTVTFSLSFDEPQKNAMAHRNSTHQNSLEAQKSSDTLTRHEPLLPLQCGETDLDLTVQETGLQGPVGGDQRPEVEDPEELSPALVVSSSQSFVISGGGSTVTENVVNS
Experimental: Oocytes were injected with poly(A)^+ -enriched mRNA from human parathyroid tissue (hyperplastic glands from a case of secondary HPT).
Following incubation, an oocyte was placed into a 100-μl plastic chamber and superfused with MBS at a flow rate of 0.5 ml/min using a peristaltic pump. Test molecules or inorganic polycations were added by rapidly moving the tubing into different buffers. Recording and current-passing electrodes were constructed from thin-wall capillary tubing pulled to a resistance of 1-3 Mohms and filled with 3 M KCl. […] Currents were recorded directly onto a strip chart recorder.
Using this screen allows one to test for an action directly on the calcium receptor. Oocytes expressing the calcium receptor also responded to several molecules active on intact parathyroid cells when screened as follows. […] This offers rather compelling evidence showing that these molecules act on the calcium receptor or on some other protein intimately associated with its function.

human parathyroid cells = test: PTH secretion from human parathyroid cells; format: cell-based; settings: human (adenoma) parathyroid cells
Experimental: PTH secretion was measured by first suspending cells in PCB containing 0.5 mM CaCl2 and 0.1% BSA.
For human cells, a commercially available radioimmunoassay kit (INS-PTH; Nichols Institute, Los Angeles, Calif.) which recognizes intact and N-terminal human PTH was used because GW-1 antibody recognizes human PTH poorly.

cyclic AMP = format: cell-based, bovine
Experimental: Cells were incubated as above for PTH secretion studies and at the end of the incubation, a 0.15-ml sample was taken and transferred to 0.85 ml of hot (70° C.) water and heated at this temperature for 5-10 minutes. The tubes were subsequently frozen and thawed several times and the cellular debris sedimented by centrifugation. Portions of the supernatant were acetylated and cyclic AMP concentrations determined by radioimmunoassay.
Each value is the mean±SEM of three experiments.

[1] = test system: osteoclast calcium receptor; test: [Ca2+]i in indo-1-loaded rat osteoclasts; format: cell-based
[2] = molecular target: T2, parathyroid cell calcium receptor (Homo sapiens, UniProt P41180); test: mobilization of intracellular Ca2+ in human parathyroid cells; format: cell-based; settings: neomycin B 10 or 20 μM, spermine 300 μM, Mg2+ 10 mM
T2 construct: Dissociated parathyroid cells were prepared from a parathyroid adenoma obtained by surgery from a patient with primary hyperparathyroidism; endogenous in cells; host or cells: human parathyroid cells (adenoma or hyperplastic glands from patients)
T2 sequence (P41180 20-1078): T1 sequence (P41180 20-1078)
Experimental: Human parathyroid glands, were obtained from patients undergoing surgical removal of parathyroid tissue for primary or uremic hyperparathyroidism (uremic HPT), and were treated similarly to bovine tissue.
The cells were then pelleted, resuspended in the same buffer, but lacking the ester, and incubated a further 15 minutes at 37° C. The cells were subsequently washed twice with PCB containing 0.5 mM CaCl2 and 0.5% BSA and maintained at room temperature (about 20° C.). Immediately before use, the cells were diluted five-fold with prewarmed 0.5 mM CaCl2 -PCB to obtain a final BSA concentration of 0.1%. The concentration of cells in the cuvette used for fluorescence recording was 1-2×10^6 /ml.

serum calcium = test: hypocalcemic response in thyroidectomized rats; format: in vivo, rat; settings: 3 to 100 mg/kg p.o.
Text: In subsequent studies, rats received a thyroidectomy (parathyroid glands intact). This surgical procedure effectively removed the C-cells secreting calcitonin and therefore enabled the relative contributions of PTH and calcitonin to the hypocalcemic effect of this compound to be determined. […] The only difference was that the rate of onset of the hypqcalcemic response was somewhat delayed in thyroidectomized animals. […] Stimulatory effects of this compound on calcitonin secretion increases the rate of onset, but not the extent, of hypocalcemia.

serum ionized calcium [3] = test: serum ionized Ca2+ in parathyroidectomized rats; format: in vivo, rat; settings: NPS R-467 10 mg/kg i.p., 6 hours; NPS R-568 oral
Text: To determine the primary target tissue upon which NPS R-467 acts to cause a hypocalcemic response, the parathyroid glands in rats were surgically removed. Animals receiving a total parathyroidectomy become hypocalcemic and are largely dependent upon dietary calcium to maintain serum Ca^2+ homeostasis.

calcitonin = calcitonin levels in rats; format: in vivo, rat; settings: NPS R-568 p.o.
serum ionized calcium [4] = test: serum ionized Ca2+ in rats; format: in vivo, rat; settings: NPS R-568 oral
Experimental: Compounds shown to activate the bovine parathyroid cell calcium receptor in vitro were tested for hypocalcemic activity in vivo. Male Sprague-Dawley rats (200 g) were maintained on a low calcium diet for one week prior to receiving test substance or vehicle as control. Blood was collected from the tail vein three hours after the intra-peritoneal administration of NPS 467. […] Serum total calcium, albumin and phosphate were measured by techniques well known in the art.
Rats (male, Sprague-Dawley, 250-300 g) were fed standard rat chow and fasted overnight prior to the experiment. NPS R-467 was suspended in corn oil and administered as a single oral dose through a gavage needle. Three hours later a sample of blood was taken from the tail vein and assessed for ionized Ca^2+ levels.

serum calcitonin = serum calcitonin in a human; format: in vivo; settings: single oral doses studied
Text: A range of single oral doses was used to assess safety, tolerance, and changes in primary hyperparathyroidism markers (e.g., plasma concentrations of parathyroid hormone and ionized serum calcium) and of serum calcitonin.

## NC[C@@H]1O[C@H](O[C@H]2[C@@H](O)[C@H](O[C@@H]3[C@@H](O)[C@H](N)C[C@H](N)[C@H]3O[C@H]3O[C@H](CN)[C@@H](O)[C@H](O)[C@H]3N)O[C@@H]2CO)[C@H](N)[C@@H](O)[C@@H]1O [Neomycin]
Bovine parathyroid cells
  effect on PTH secretion: inhibited PTH secretion to the same extent as extracellular Ca^2+
Calcium receptor; hexacyclen 135 μM, neomycin 100 μM, NPS 382 5 mM
  mobilization of intracellular Ca2+ in oocytes: also effective
Calcium receptor; listed as Neomycin B
  effect on Cl- current: evoked oscillatory increases in the Cl^-
  effect in water-injected oocytes: failed to elicit a response in five water-injected oocytes
Calcium receptor; listed as neomycin B
  effect on Cl- current: evokes oscillating increases in the Cl^-
  effect in water-injected oocytes: failed to cause any change in the current
Human parathyroid cells; listed as Neomycin B
  effect on PTH secretion: inhibited PTH secretion from human parathyroid cells
Human parathyroid cells; listed as neomycin B
  effect on PTH secretion: inhibit PTH secretion
Cyclic AMP
  effect on isoproterenol-induced increases in cyclic AMP: depressed isoproterenol-induced increases in cyclic AMP
[1]
  effect on [Ca2+]i in osteoclasts: failed to evoke any increase in [Ca^2+ ]i; also recorded: Neither neomycin (10 mM) nor spermine (10 or 20 mM) caused increases in [Ca^2+ ]i; also recorded: fail to affect the calcium receptors on C-cells or osteoclasts
  effect on response to extracellular Ca2+ in osteoclasts: did not block the increase in [Ca^2+ ]i
[1]; listed as neomycin
  effect on [Ca2+]i in osteoclasts: none of these caused any large increase in [Ca^2+ ]i
[1]; listed as neomycin B
  effect on [Ca2+]i in osteoclasts: fail to evoke increases in [Ca^2+ ]i
[2]
  effect on [Ca2+]i in human parathyroid cells: large increase in [Ca^2+ ]i
[2]; listed as Neomycin B
  effect on [Ca2+]i in human parathyroid cells: not only a transient, but additionally a steady-state increase in [Ca^2+ ]i
[2]; listed as neomycin B
  effect on [Ca2+]i in human parathyroid cells: transient and sustained increases in [Ca^2+ ]i

## COc1cccc([C@@H](C)NCCCc2ccccc2Cl)c1 [NPS R-568, (R)-(+)-N-[3-(2-chlorophenyl)propyl]-α-methyl-3-methoxybenzylamine]
Serum calcium
  hypocalcemic response in thyroidectomized rats: hypocalcemic response equal in magnitude to that produced in sham-operated animals
Serum ionized calcium [3]
  effect on serum ionized Ca2+ in parathyroidectomized rats: fails to elicit a hypocalcemic response
calcitonin
  effect on calcitonin, oral: increase in calcitonin
Serum ionized calcium [4]; prior complete nephrectomy
  hypocalcemic response after complete nephrectomy: only marginally affected
Serum ionized calcium [4]; rats
  effect on serum Ca2+, oral: dose-dependent decrease in the levels of serum Ca^2+
Serum calcitonin
  effect on serum calcitonin in human: no apparent change in serum calcitonin
